Where two headings read alike, the source gives them in different places. Marks after values point to notes of the source that are not given here.
Experiments:
[1] = tested on: Rhodococcus sp. FZ4 nitrile hydratase; type: cell-based
Method: (§1) Nitrile hydratase activity was determined by incubating a reaction mixture comprising 3-cyanopyridine (1.0 M; 1.0 ml), potassium phosphate buffer (0.1 M, pH 7.0; 0.5 ml) and cell suspension (0.5 ml) with stirring at 20° C. for 5 min. The reaction was stopped by adding HCI (5 M; 0.1 ml). After filtration (0.2 μm filter) of the reaction mixture, the amount of nicotinamide produced was determined by means of HPLC (Waters Spherisorb 5 μ ODS2 (4.6×150 mm); KH2P04/H3P04 (10 mM; pH 2.8)/acetonitrile=9:1 (v/v); 1 ml/min; 230 nm). The total activity is expressed as μmol of nicotinamide produced/ (min×ml) and the specific activity is expressed as μmol of nicotinamide produced/(min×ml×OD610 nm).
(§2) The preculture medium of Table 2 was inoculated with strain Rhodococcus sp. FZ4 (DSM 13597), followed by incubation with shaking at 28° C. for 1 to 2 days. The preculture was transferred into the culture medium of Table 5, which contained different inducers, and cultured with shaking at 28° C. for 3 days. Nitrile hydratase activity was determined according to Example 1. Rhodococcus sp.

[2] = tested on: Rhodococcus rhodochrous J1 nitrile hydratase; assay: Substrate specificity of nitrile hydratase activity (comparison strain); type: cell-based
[3] = tested on: Rhodococcus sp. FZ4 nitrile hydratase; assay: Substrate specificity of nitrile hydratase activity, resting cells; type: cell-based
Method: as §1
Rhodococcus sp. FZ4 nitrile hydratase activity with respect to different substrates was determined according to Example 1, except that the appropriate substrate was used instead of 3-cyanopyridine and that the HPLC conditions were modified according to the substrate used.

[4] = tested on: purified Rhodococcus sp. FZ4 nitrile hydratase; assay: KM value for 3-cyanopyridine, purified nitrile hydratase; type: biochemical; details: purified enzyme, potassium phosphate buffer pH 7.0, 20° C.
Method: The reaction mixture was incubated at 20° C. for 10 min. The reaction was stopped by adding methanol and the amount of nicotinamide produced was determined by means of HPLC according to Example 1.

[5] = tested on: Rhodococcus sp. FZ4 nitrile hydratase; type: cell-based; details: for Relative activity: incubation for 60 min
Method: as §1
(§3) […] The cells were removed, washed and resuspended in potassium phosphate buffer (0.1 M; pH 7.0).
(§4) The influence of 3-cyanopyridine concentration on the nitrile hydratase activities of Rhodococcus sp. FZ4, Rhodococcus sp. GF270, Amycolatopsis sp. NA40 and Rhodococcus rhodochrous J1 was determined according to Example 9 using the respective microorganism and the 3-cyanopyridine concentrations indicated in Table 10.

[6] = tested on: Amycolatopsis sp. NA40 nitrile hydratase; type: cell-based; details: incubation for 15 min
Method: as §1, §3, §4

[7] = tested on: Rhodococcus sp. FZ4; type: cell-based
Method: as §2

[8] = tested on: Rhodococcus rhodochrous J1 nitrile hydratase; type: cell-based; details: incubation for 15 min
Method: […] The reaction was stopped by adding HCI (5 M; 0.1 ml). After filtration (0.2 μm filter) of the reaction mixture, the amount of nicotinamide produced was determined by means of HPLC (Waters Spherisorb 5 μ ODS2 (4.6×150 mm); KH2P04/H3P04 (10 mM; pH 2.8)/acetonitrile=9:1 (v/v); 1 ml/min; 230 nm). The total activity is expressed as μmol of nicotinamide produced/ (min×ml) and the specific activity is expressed as μmol of nicotinamide produced/(min×ml×OD610 nm).
as §3, §4

[9] = tested on: purified Rhodococcus sp. FZ4 nitrile hydratase; assay: Substrate specificity of purified nitrile hydratase; type: biochemical
Method: A reaction mixture comprising nitrile hydratase solution (0.695 μmol/min; 0.025 ml), different substrates (0.500 ml) and potassium phosphate buffer (0.1 M; pH 7.0; 0.475 ml) was incubated at 20° C. for 5 to 10 min. The concentrations of the substrates used were in the range from 0.015 to 0.250 M. The reaction was stopped by adding MeOH. The amount of amide produced was determined by means of HPLC.

[10] = tested on: Rhodococcus sp. GF270 nitrile hydratase; type: cell-based; details: incubation for 60 min
Method: as §1
A cell suspension was incubated at different 3-cyano-30 pyridine concentrations in the range from 0 to 10% (w/v) at 20° C. for 60 min. The cells were removed, washed and resuspended in potassium phosphate buffer (0.1 M; pH 7.0).
as §4

[11] = tested on: Amycolatopsis sp. NA40 nitrile hydratase; assay: KM value for 3-cyanopyridine, resting cells; type: cell-based; details: 30° C., pH 7.0
Method: The reaction was stopped by adding HC1(2 M; 0.1 ml).
FZ4, Rhodococcus sp. GF270 (DSM 12211; WO 99/05306), Amycolatopsis sp. NA40 (DSM 11617; WO 99/05306) and Rhodococcus rhodochrous J1 were determined according to Example 11 using the respective microorganism.

[12] = water; cited from earlier work
[13] = tested on: Rhodococcus sp. FZ4 nitrile hydratase; type: cell-based; details: pH 7
Method: The reaction was stopped by adding MeOH. The reaction mixture was centrifuged (12 000 rpm, 5 min) and the amount of acetamide produced was determined by means of HPLC according to Example 14.

[14] = tested on: purified Rhodococcus sp. FZ4 nitrile hydratase; details: read-out: KM value for acetonitrile; pH 7
Method: The reaction mixture was incubated at 20° C. for 10 min. The reaction was stopped by adding methanol and the amount of acetamide produced was determined by means of HPLC according to Example 14.

[15] = tested on: Rhodococcus sp. FZ4 nitrile hydratase; type: cell-based; remark: listed apart in the source
Method: A reaction mixture comprising acetonitrile (0.2-19.0 M; 1.0-1.6 ml), aqueous NaCl solution (0.85% (w/v); 0.6-0.0 ml), potassium phosphate buffer (0.1 M; pH 7.0; 0.3 ml) and cell suspension (0.1 ml) was incubated with shaking at 20° C. for 10 min. The total reaction volume was 2.0 ml. The reaction was stopped by adding MeOH. The reaction mixture was centrifuged (12 000 rpm, 5 min) and the amount of acetamide produced was determined by means of HPLC according to Example 14.

[16] = tested on: purified Rhodococcus sp. FZ4 nitrile hydratase; assay: Influence of metal ions on the activity of purified nitrile hydratase; type: biochemical; details: no addition = 100
Method: A solution comprising nitrile hydratase solution (0.695 μmol/min; 0.025 ml), potassium phosphate buffer (0.1 M; pH 7.0; 0.475 ml), distilled water (0.150 ml) and different potential inhibitors (0.100 ml) was incubated at 20° C. for 5 min. This was followed by the addition of 3-cyanopyridine (1.0 M; 0.250 ml). The concentration of the inhibitors in the reaction mixture was 1.0 mM. The reaction mixture was incubated at 20° C. for 10 min. The reaction was stopped by adding MeOH. The amount of nicotinamide produced was determined by means of HPLC according to Example 1.
The influence of metal ions on the activity of purified nitrile hydratase was carried out according to Example 24, but with the addition of metal ions instead of potential inhibitors. […]

[17] = tested on: Rhodococcus sp. FZ4; assay: Influence of cofactors on growth during cultivation; type: cell-based; details: basal medium with cofactor 0.004 g/l, 28° C., 2 to 3 days
Method: The preculture medium of Table 2 was inoculated with strain Rhodococcus sp. FZ4 (DSM 13597), followed by incubation with shaking at 28° C. for 1 to 2 days. The preculture was transferred into the basal medium of Table 3, which contains either CoCl 2 or FeSO4, and cultured with shaking at 28° C. for 2 to 3 days. Nitrile hydratase activity was determined according to Example 1. A nitrile hydratase activity was present only when culturing Rhodococcus sp. FZ4 in the presence of cobalt.

[18] = tested on: Rhodococcus sp. FZ4 nitrile hydratase; assay: Influence of cofactors on nitrile hydratase activity during cultivation; type: cell-based; details: basal medium with cofactor 0.004 g/l, 28° C., 2 to 3 days; substrate 3-cyanopyridine
Method: as §1
The preculture medium of Table 2 was inoculated with strain Rhodococcus sp. FZ4 (DSM 13597), followed by incubation with shaking at 28° C. for 1 to 2 days. The preculture was transferred into the basal medium of Table 3, which contains either CoCl 2 or FeSO4, and cultured with shaking at 28° C. for 2 to 3 days. Nitrile hydratase activity was determined according to Example 1.

[19] = culture medium with inducer 0.2% (w/v), 28° C., 3 days, substrate 3-cyanopyridine
[20] = culture medium with inducer 0.2% (w/v), 28° C., 3 days

Structure (SMILES): N#Cc1cccnc1 [3-Cyanopyridine]
- Specific activity [1, 19]: 2.21 μmol/(min × ml × OD610 nm)
- Total activity [1, 19]: 12.3 µmol/min/mL
- Relative activity ([2]; compound as substrate, 3-cyanopyridine = 100): 100%
- Relative activity ([3]; compound as substrate, 3-cyanopyridine = 100, resting cells, 20° C.): 100%
- Km [4]: 80.5 mM
- nitrile hydratase activity after incubation with 3-cyanopyridine ([5]; 0 to 20% (w/v) for 60 minutes, 20° C.): corresponded approximately to the original nitrile hydratase activity
- Relative activity ([5]; 3-cyanopyridine 2.5% (w/v)): 100^a %
- Relative activity ([5]; 3-cyanopyridine 5.0% (w/v)): 100^a %
- Relative activity ([5]; 3-cyanopyridine 7.5% (w/v)): 100^a %
- Relative activity ([5]; 3-cyanopyridine 10.0% (w/v)): 100^a %
- Relative activity ([6]; 3-cyanopyridine 2.5% (w/v)): 74^b %
- Relative activity ([6]; 3-cyanopyridine 5.0% (w/v)): 56^b %
- Relative activity ([6]; 3-cyanopyridine 7.5% (w/v)): 47^b %
- Relative activity ([6]; 3-cyanopyridine 10.0% (w/v)): 16^b %
- Growth [7, 20]: 5.54 OD610 nm
- Relative activity ([8]; 3-cyanopyridine 5.0% (w/v)): 86^b %
- Relative activity ([8]; 3-cyanopyridine 10.0% (w/v)): 63^b %
- Total activity ([9]; substrate concentration 0.25 M, corresponds to 100%): ^aTotal activity: 4,164 μmol/(min × .ml).
- Relative activity ([9]; substrate concentration 0.25 M, reference = 100): 100^a %
- Relative activity ([10]; 3-cyanopyridine 2.5% (w/v)): 100^a %
- Relative activity ([10]; 3-cyanopyridine 5.0% (w/v)): 100^a %
- Relative activity ([10]; 3-cyanopyridine 7.5% (w/v)): 100^a %
- Relative activity ([10]; 3-cyanopyridine 10.0% (w/v)): 100^a %
- Km [11]: 41.7 mM

Structure (SMILES): CC(N)=O [Acetamide]
- Specific activity [1, 19]: 4.98 μmol/(min × ml × OD610 nm)
- Total activity [1, 19]: 21.6 µmol/min/mL
- Growth [7, 20]: 4.37 OD610 nm
- concentration of an acetamide solution saturated at 30° C. [12]: 220-230 g of acetamide in 100 ml of water

Structure (SMILES): CC#N [Acetonitrile]
- Specific activity [1]: 4.13 μmol/(min × ml × OD610 nm)
- Total activity [1]: 18.4 µmol/min/mL
- nitrile hydratase activity after incubation with acetonitrile [13]: nearly constant
- Relative activity [3]: 646%
- Growth [7]: 4.46 OD610 nm
- Relative activity [9]: 1 008%
- Km [14]: 2.84 mM
- nitrile hydratase activity as a function of acetonitrile concentration [15]: nearly constant

Structure (SMILES): O=[N+]([O-])[O-].[Ag+] [AgNO3]
- Relative activity ([16]; metal ions 1.0 mM): 0%

Structure (SMILES): [Ca+2].[Cl-].[Cl-] [CaCl2]
- Relative activity ([16]; metal ions 1.0 mM): 113%

Structure (SMILES): [Cl-].[Cl-].[Co+2] [CoC12]
- Relative activity ([16]; metal ions 1.0 mM): 110%
- Growth [17]: 2.79 OD610 nm
- Specific activity [18]: 13.1 μmol/(min × ml × OD610 nm)
- Total activity [18]: 38.1 µmol/min/mL

Structure (SMILES): CC=CC#N [Crotononitrile]
- Specific activity [1, 19]: 49.4 μmol/(min × ml × OD610 nm)
- Total activity [1, 19]: 407 µmol/min/mL
- Relative activity [2]: 78%
- Relative activity [3]: 92.1%
- Growth [7, 20]: 8.24 OD610 nm
- Relative activity [9]: 114%

Structure (SMILES): O=S(=O)([O-])[O-].[Cu+2] [CuS04]
- Relative activity ([16]; metal ions 1.0 mM): 177%

Structure (SMILES): [Cl][Fe]([Cl])[Cl] [FeCl3]
- Relative activity ([16]; metal ions 1.0 mM): 105%

Structure (SMILES): O=S(=O)([O-])[O-].[Fe+2] [FeSO4]
- Relative activity ([16]; metal ions 1.0 mM): 113%
- Growth [17]: 2.86 OD610 nm
- Specific activity [18]: 0.346 μmol/(min × ml × OD610 nm)
- Total activity [18]: 0.989 µmol/min/mL

Structure (SMILES): [Cl][Hg][Cl] [HgCl2]
- Relative activity ([16]; metal ions 0.1 mM (footnote b)): 0%

Structure (SMILES): [Cl][Mn][Cl] [MnCl2]
- Relative activity ([16]; metal ions 1.0 mM): 123%

Structure (SMILES): [Cl][Ni][Cl] [NiCl2]
- Relative activity ([16]; metal ions 1.0 mM): 123%

Structure (SMILES): CCC#N [Propionitrile]
- Specific activity [1, 19]: 20.3 μmol/(min × ml × OD610 nm)
- Total activity [1, 19]: 95.8 µmol/min/mL
- Relative activity [2]: 435%
- Relative activity [3]: 412%
- Growth [7, 20]: 4.72 OD610 nm
- Relative activity [9]: 693%

Structure (SMILES): O=S(=O)([O-])[O-].[Zn+2] [ZnSO4]
- Relative activity ([16]; metal ions 1.0 mM): 121%

— patent US7838271B2, “Microbiological method for producing amides” (priority 2001, dated 2010)
